Measurements: US8513276B2, “Imidazo[1,2-a]pyridine compounds for use in treating cancer” (Astex Therapeutics Limited, priority 2006, dated 2013)
Structures can show the parent of a compound that is named as a salt. Where two headings read alike, the source gives them in different places.

Assays:
[1] = target: T1, FGFR3 (Homo sapiens, UniProt P22607); test: FGFR3 in vitro kinase inhibitory activity assay (TRF); format: biochemical
T1 construct: Enzymes (from Upstate) were prepared at 2× final concentration in 1× kinase assay buffer; purchased Upstate
Method: Enzymes (from Upstate) were prepared at 2× final concentration in 1× kinase assay buffer (as described below). Enzymes were then incubated with test compounds, biotinylated Flt3 substrate (biotin—DNEYFYV) (Cell Signalling Technology Inc.) and ATP. The reaction was allowed to proceed for 3 hours (FGFR3) or 2.5 hrs (PDGFR-beta) at room temperature on a plate shaker at 900 rpm before being stopped with 20 μl of 35 mM EDTA, pH 8 (FGFR3) or 55 mM EDTA, pH 8 (PDGFR-beta). Twenty μl of 5× detection mix (50 mM HEPES pH 7.5, 0.1% BSA, 2 nM Eu-anti-pY (PY20) (PerkinElmer) 15 nM SA-XL665 (Cisbio) for FGFR3 and 50 mM HEPES, pH 7.5, 0.5 M KF, 0.1% BSA, 11.34 nM Eu-anti-pY (PT66) (PerkinEimer), 94 nM SA-XL665 (Cisbio) for PDGFR-beta) was then added to each well and the plate sealed and incubated at room temperature for one hour on a plate shaker at 900 rpm. The plate was then read on a Packard Fusion plate reader in TRF mode.
Kinase Assay buffers were:
A: 50 mM HEPES pH 7.5, 6 mM MnCl2, 1 mM DTT, 0.1% TritonX-100

[2] = test system: LP-1 cell line; test: Cell-based pERK ELISA in LP-1 multiple myeloma cells; settings: Homo sapiens
Method: LP-1 or JIM-1 multiple myeloma cells were seeded in 96 well plates at 1×10^6 cells/ml in 200 μl per well in serum free media. HUVEC cells were seeded at 2.5×10^5 cells/ml and allowed to recover for 24 h prior to transfer to serum free media. Cells were incubated for 16 h at 37° C. prior to the addition of a test compound for 30 minutes. Test compounds were administered at a 0.1% final DMSO concentration. Following this 30 minute incubation a FGF-1/Heparin (FGF-1 at 100 ng/ml final and Heparin at 100 ug/ml) mixture or VEGF^165 ([…]) was added to each of the wells for a further 5 minutes. The media was removed and 50 ul ERK ELISA lysis buffer (R and D Systems DuoSet ELISA for pERK and Total ERK #DYC-1940E, DYC-1018E) added. ELISA plates and standards were prepared according to the standard DuoSet protocols and the relative amounts of pERK to total ERK in each sample calculated according to the standard curve.
In particular, compounds of the invention were tested against the LP-1 cell line (DSMZ no.: ACC 41) derived from human multiple myeloma.

[3] = given as a bound, read-out: IC50 in the FGFR3 assay
[4] = LP-1 cell line, given as a bound, read-out: IC50 in LP-1 pERK ELISA
[5] = in vitro kinase assay, 8 μM ATP, read-out: FGFR3 IC50
[6] = LP-1 cells, FGF-1/heparin stimulation, pERK relative to total ERK, read-out: LP-1 pERK ELISA

T1 sequence (P22607 23-806): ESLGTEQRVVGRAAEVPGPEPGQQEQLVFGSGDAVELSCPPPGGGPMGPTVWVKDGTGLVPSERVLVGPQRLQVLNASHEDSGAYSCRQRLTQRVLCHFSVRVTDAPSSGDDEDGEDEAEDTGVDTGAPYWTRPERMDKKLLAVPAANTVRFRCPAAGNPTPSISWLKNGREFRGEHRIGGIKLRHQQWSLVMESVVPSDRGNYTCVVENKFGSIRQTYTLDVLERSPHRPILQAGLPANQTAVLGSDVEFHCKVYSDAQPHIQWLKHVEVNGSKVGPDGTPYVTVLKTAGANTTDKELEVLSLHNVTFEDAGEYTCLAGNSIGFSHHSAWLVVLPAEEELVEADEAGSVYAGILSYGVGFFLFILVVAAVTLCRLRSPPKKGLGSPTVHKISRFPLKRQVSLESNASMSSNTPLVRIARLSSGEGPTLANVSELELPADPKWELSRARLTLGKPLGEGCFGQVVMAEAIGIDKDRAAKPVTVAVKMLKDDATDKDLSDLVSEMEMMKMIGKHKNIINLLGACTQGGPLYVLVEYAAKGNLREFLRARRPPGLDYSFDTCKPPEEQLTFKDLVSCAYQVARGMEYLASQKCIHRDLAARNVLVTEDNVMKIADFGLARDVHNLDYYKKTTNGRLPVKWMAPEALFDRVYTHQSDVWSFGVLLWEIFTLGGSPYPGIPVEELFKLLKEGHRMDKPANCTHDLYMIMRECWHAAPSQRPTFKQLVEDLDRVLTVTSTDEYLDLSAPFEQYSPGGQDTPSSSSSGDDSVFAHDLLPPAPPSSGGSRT

## c1cc(Nc2nncs2)cc(-c2cnn3cc(-c4cnccn4)cnc23)c1 [Example 18, [3-(6-Pyrazin-2-yl-pyrazolo[1,5-a]pyrimidin-3-yl)-phenyl]-[1,3,4]thiadiazol-2-yl-amine]
[1]; [3]
  IC50: < 1000 nM
[2]; [4]
  IC50: < 1000 nM

## CS(=O)(=O)NCc1cccc(-c2ccn3c(-c4cccc(Nc5nncs5)c4)cnc3c2)c1 [Example 40, N-(3-{3-[3-([1,3,4]Thiadiazol-2-ylamino)-phenyl]-imidazo[1,2-a]pyridin-7-yl}-benzyl)-methanesulfonamide]
[1]; [3]
  IC50: < 1000 nM

## Cn1nnc(-c2ccn3c(-c4cccc(Nc5nncs5)c4)cnc3c2)n1 [Example 43, {3-[7-(2-Methyl-2H-tetrazol-5-yl)-imidazo[1,2-a]pyridin-3-yl]phenyl}-[1,3,4]thiadiazol-2-yl-amine]
[1]; [3]
  IC50: < 1000 nM
[1]; [5]
  IC50: 33.9 nM
[2]; [4]
  IC50: < 1000 nM
[2]; [6]
  IC50: 140 nM

## CNC(=O)Cc1cccc(-c2ccn3c(-c4cccc(Nc5nncs5)c4)cnc3c2)c1 [Example 26, N-Methyl-2-(3-{3-[3-([1,3,4]thiadiazol-2-ylamino)-phenyl]-imidazo[1,2-a]pyridin-7-yl}-phenyl)-acetamide Hydrochloride]
[1]; [3]
  IC50: < 1000 nM
[2]; [4]
  IC50: < 1000 nM

## Fc1ccc(-c2cnc3c(-c4cc(Nc5nncs5)ccn4)cnn3c2)cc1 [Example 31, {2-[6-(4-Fluoro-phenyl)-pyrazolo[1,5-a]pyrimidin-3-yl]-pyridin-4-yl}-[1,3,4]thiadiazol-2-yl-amine]
[1]; [3]
  IC50: < 1000 nM
[1]; [5]
  IC50: 350 nM

## Cn1cc(-c2ccn3c(-c4cccc(Nc5nncs5)c4)cnc3c2)cn1 [Example 14, {3-[7-(1-Methyl-1H-pyrazol-4-yl)-imidazo[1,2-a]pyridin-3-yl]-phenyl}-[1,3,4]thiadiazol-2-yl-amine]
[1]; [3]
  IC50: < 1000 nM
[1]; [5]
  IC50: 16 nM
[2]; [4]
  IC50: < 1000 nM
[2]; [6]
  IC50: 8.5 nM

## CNC(=O)c1cccc(-c2ccn3c(-c4cccc(Nc5nncs5)c4)cnc3c2)c1 [Example 30, N-Methyl-3-{3-[3-([1,3,4]thiadiazol-2-ylamino)-phenyl]-imidazo[1,2-a]pyridin-7-yl}-benzamide Hydrochloride]
[1]; [3]
  IC50: < 1000 nM
[2]; [4]
  IC50: < 1000 nM

## c1cc(Nc2nncs2)cc(-c2cnc3cc(-c4ccnc(OC5CCOCC5)c4)ccn23)c1 [Example 33]
[1]; [3]
  IC50: < 1000 nM

## Fc1ccc(-c2ccn3c(-c4cccc(Nc5ncns5)c4)cnc3c2)cc1 [Example 39, {3-[7-(4-Fluoro-phenyl)-imidazo[1,2-a]pyridin-3-yl]phenyl}-[1,2,4]thiadiazol-5-yl-amine]
[1]; [3]
  IC50: < 1000 nM
[1]; [5]
  IC50: 115 nM

## CN1CCN(Cc2cccc(-c3ccn4c(-c5cccc(Nc6nncs6)c5)cnc4c3)c2)CC1 [Example 9, (3-{7-[3-(4-Methyl-piperazin-1-ylmethyl)-phenyl]-imidzao[1,2-a]pyridin-3-yl}-phenyl)-[1,3,4]thiadiazol-2-yl-amine formate salt]
[1]; [3]
  IC50: < 1000 nM
[2]; [4]
  IC50: < 1000 nM

## CC(=O)N1CCN(c2ccn3c(-c4cccc(Nc5nncs5)c4)cnc3c2)CC1 [Example 38, 1-(4-{3-[3-([1,3,4]Thiadiazol-2-ylamino)-phenyl]-imidazo[1,2-a]pyridin-7-yl}-piperazin-1-yl)-ethanone]
[1]; [3]
  IC50: < 1000 nM

## c1ccc(Nc2cccc(-c3cnc4cc(-c5cccc(CN6CCOCC6)c5)ccn34)c2)cc1 [Example 8, {3-[7-(3-Morpholin-4-ylmethyl-phenyl)-imidazo[1,2-a]pyridin-3-yl]-phenyl}-phenyl-amine]
[1]; [3]
  IC50: < 1000 nM

## Clc1ccn2c(-c3cccc(Nc4nncs4)c3)cnc2c1 [the starting material of Procedure A4c, [3-(7-Chloro-imidazo[1,2-a]pyridin-3-yl)-phenyl]-[1,3,4]thiadiazol-2-yl-amine]
[1]; [3]
  IC50: < 1000 nM
[2]; [4]
  IC50: < 1000 nM

## Nc1ccc(-c2ccn3c(-c4cccc(Nc5nncs5)c4)cnc3c2)cn1 [Example 37, 5-{3-[3-([1,3,4]Thiadiazol-2-ylamino)-phenyl]-imidazo[1,2-a]pyridin-7-yl}-pyridin-2-ylamine Hydrochloride]
[1]; [3]
  IC50: < 1000 nM
[1]; [5]
  IC50: 2.55 nM

## O=C(c1cccc(-c2ccn3c(-c4cccc(Nc5nncs5)c4)cnc3c2)c1)N1CCOCC1 [Example 22, Morpholin-4-yl-(3-{3-[3-([1,3,4]thiadiazol-2-ylamino)-phenyl]-imidazo[1,2-a]pyridin-7-yl}-phenyl)-methanone Hydrochloride]
[1]; [3]
  IC50: < 1000 nM

## Cn1ccnc1Nc1cccc(-c2cnc3cc(-c4ccc(F)cc4)ccn23)c1 [Example 34, {3-[7-(4-Fluoro-phenyl)-imidazol[1,2-a]pyridin-3-yl]-phenyl}-(1-methyl-1H-imidazol-2-yl)-amine Hydrochloride]
[1]; [3]
  IC50: < 1000 nM
[1]; [5]
  IC50: 480 nM

## Fc1ccc(-c2ccn3c(-c4cccc(Nc5ccncc5)c4)cnc3c2)cc1 [Example 6, {3-[7-(4-Fluoro-phenyl)-imidazo[1,2-a]pyridin-3-yl]-phenyl}-pyridin-4-yl-amine formate salt]
[1]; [3]
  IC50: < 1000 nM

## Fc1ccc(-c2ccn3c(-c4cccc(Nc5cnccn5)c4)cnc3c2)cc1 [Example 1, {3-[7-(4-Fluoro-phenyl)-imidazo[1,2-a]pyridin-3-yl]-phenyl}-pyrazin-2-yl-amine]
[1]; [3]
  IC50: < 1000 nM

## Cn1cc(-c2ccn3c(-c4cccc(NCc5ccccc5)c4)cnc3c2)cn1 [Example 42, Benzyl-{3-[7-(1-methyl-1H-pyrazol-4-yl)-imidazo[1,2-a]pyridin-3-yl]phenyl}-amine]
[1]; [3]
  IC50: < 1000 nM

## Clc1ccn2c(-c3cccc(NCc4ccccc4)c3)cnc2c1 [the product of Procedure F8, Benzyl-[3-(7-chloro-imidazo[1,2-a]pyridin-3-yl)-phenyl]-amine]
[1]; [3]
  IC50: < 1000 nM

## Nc1nc(Nc2cccc(-c3cnc4cc(-c5ccc(F)cc5)ccn34)c2)n[nH]1 [Example 27, N*3*-(3-[7-(4-Fluoro-phenyl)-imidazo[1,2-a]pyridin-3-yl]-phenyl}-1H-[1,2,4]triazole-3,5-diamine]
[1]; [3]
  IC50: < 1000 nM
[1]; [5]
  IC50: 130 nM

## CCS(=O)(=O)N1CCN(c2ccn3c(-c4cccc(Nc5nncs5)c4)cnc3c2)CC1 [Example 21, {3-[7-(4-Ethanesulfonyl-piperazin-1-yl)-imidazo[1,2-a]pyridin-3-yl]-phenyl}-[1,3,4]thiadiazol-2-yl-amine Hydrochloride]
[1]; [3]
  IC50: < 1000 nM

## c1cc(Nc2nncs2)cc(-c2cnc3cc(N4CCOCC4)ccn23)c1 [Example 19, [3-(7-Morpholin-4-yl-imidazo[1,2-a]pyridin-3-yl)-phenyl]-[1,3,4]thiadiazol-2-yl-amine]
[1]; [3]
  IC50: < 1000 nM

## CCOC(=O)N1CCN(c2ccn3c(-c4cccc(Nc5nncs5)c4)cnc3c2)CC1 [Example 36, 4-{3-[3-([1,3,4]Thiadiazol-2-ylamino)-phenyl]-imidazo[1,2-a]pyridin-7-yl}-piperazine-1-carboxylic acid ethyl ester]
[1]; [3]
  IC50: < 1000 nM

## OCc1cccc(-c2ccn3c(-c4cccc(Nc5nncs5)c4)cnc3c2)c1 [Example 35, (3-{3-[3-([1,3,4]Thiadiazol-2-ylamino)-phenyl]-imidazo[1,2-a]pyridin-7-yl}-phenyl)-methanol]
[1]; [3]
  IC50: < 1000 nM

## Fc1ccc(-c2ccn3c(-c4cccc(Nc5nnco5)c4)cnc3c2)cc1 [Example 29, {3-[7-(4-Fluoro-phenyl)-imidazo[1,2-a]pyridin-3-yl]phenyl}-[1,3,4]oxadiazol-2-yl-amine]
[1]; [3]
  IC50: < 1000 nM
[1]; [5]
  IC50: 11 nM

## Fc1ccc(-c2ccc3c(c2)ncn3-c2cccc(Nc3nncs3)c2)cc1 [Example 23, {3-[5-(4-Fluoro-phenyl)-benzoimidazol-1-yl]-phenyl}-[1,3,4]thiadiazol-2-yl-amine]
[1]; [3]
  IC50: < 1000 nM

## Clc1ccn2c(-c3cccc(Nc4cnn[nH]4)c3)cnc2c1 [the product of Procedure G1, [3-(7-Chloro-imidazo[1,2-a]pyridin-3-yl)-phenyl]-(3H-[1,2,3]triazol-4-yl)-amine]
[1]; [3]
  IC50: < 1000 nM

## Cc1ccn2c(-c3cccc(Nc4nncs4)c3)cnc2c1 [Example 41, [3-(7-Methyl-imidazo[1,2-a]pyridin-3-yl)phenyl]-[1,3,4]thiadiazol-2-yl-amine Hydrochloride]
[1]; [3]
  IC50: < 1000 nM
